Holding throughout (assay type): cell-based, human
The test system of test [1] is MD55A3 cells. The test is described as follows: Proteomic analysis of tryptophan-containing proteins with IFNγ and proteasome inhibition. The settings on record: combined treatment with IFNγ and MG132. The method, then: Frozen MD55A3 cell pellets were lysed, reduced and alkylated in heated guanidine (GuHCl) lysis buffer as described by Jersie-Christensen et al.^70. Proteins were digested with Lys-C (Wako) for 2 h at 37° C., enzyme/substrate ratio 1:100. The mixture was then diluted to 2 M GuHCl and digested overnight at 37° C. with trypsin (Sigma) in enzyme/substrate ratio 1:50. Digestion was quenched by the addition of TFA (final concentration 1%), after which the peptides were desalted on a Sep-Pak C18 cartridge (Waters, Massachusetts, USA). Samples were vacuum dried and stored at −80° C. until LC-MS/MS analysis.
Peptides were reconstituted in 2% formic acid and analyzed by nano LC-MS/MS on an Q Exactive HF-X Hybrid Quadrupole-Orbitrap Mass Spectrometer equipped with an EASY-NLC 1200 system (Thermo Scientific). […]
RAW files were analyzed by Proteome Discoverer (version 2.3.0.523, Thermo Scientific) using standard settings. […] Differentially expressed proteins were determined using a t-test (threshold: FDR 1% or FDR 5% and S0: 0.13). […]
To look at the downstream consequences of W-Bump formation, we assessed the impact of W-Bumps on protein expression by proteomic analysis following IFNγ induction. We first analyzed the differential protein expression in IFNγ-treated versus control cells (data not shown) and grouped proteins according to the number of tryptophan residues they contain (FIG. 2l). […]

Test [2] has as its system MD55A3 melanoma cells. In words: V5-ATF4(1-63)-His frameshift reporter, His-tag pulldown and V5-tag immunoblotting. The settings on record: IFNγ+IDOi, MD55A3 reporter cells. From the text: FIG. 3: W-Bumps are associated with disordered out-of-frame peptides, and shortage in tryptophan leads to frameshifting events. • (a) Bar-plots depicting total occurrences of alpha-helices, beta-sheets and turns for tryptophan-containing peptide sequences corresponding to W-Bumps (left) and all remaining peptide sequences (middle), and the difference in percentages (right). […] Tryptophan shortage, on the other hand, can lead to stalling on the tryptophan codon (bottom left panel), or could in theory induce frameshifting events, leading to aberrant peptide production (lower right panel). Since secondary structure of growing polypeptide chains is attained in the lower tunnel of the ribosome, the loss of an a-helical secondary structure in this tunnel could hamper ribosomal progression. (c) Line-plots depicting the probability of disorderedness of peptide sequences. The position of the tryptophan is indicated by the dashed line. […] The green line represents the average probability of disorderedness of all peptides (‘All tryptophan codons’, n=36508). A group of outlier candidates that show relatively ordered out-of-frame peptide sequences were selected for comparisons (‘Selected tryptophan codons’, n=94, red). (d) Line-plots depicting mean frequency of RPFs at single nucleotide resolution across all tryptophans (green) and the selected outlier set (red) from panel 3c. […]

Test [3] relates to 12T cells. The test is described as follows: Ribosome profiling with diricore / bump analysis. As to conditions: IFNγ+IDOi. From the text: Preprocessing of FASTQ files consisted of adapter removal using cutadapt (available at doi.org/10.14806/ej.17.1.200) with the parameters (--quality-base=33-O7-e 0.15-m 20-q 5) and removal of rRNA and tRNA contaminants by means of alignment against a reference (rRNA reference data from GENCODE^61 v19: rRNA, MT_RNA, rRNA_pseudogene, and tRNA reference data from GtRNAdb) using bowtie2^62 with parameters (--seed 42−p1—local).
The actual alignment of pre-processed FASTQ files was done with TopHat2^63 and Bowtie2^62 against GRCh37/ hg19 and GENCODE v19/BASIC transcript with Ensembl coordinates using parameters (seed 42-n 2-m 1 --no-novel-juncs --no-novel-indels --no-coverage-search --segment-length 25). In a subsequent step the primary aligned reads filtered for a minimum mapping quality of 10. […]
The reads (FASTQ) from Riboseq experiments were aligned to human transcript assembly (gencode v19) after removal of low quality reads and the reads that align to tRNA and rRNA (refer methods section—Diricore). […]
BAM files were converted to BED using BEDTOOLS 68 and later file formats were edited using PERL scripts. Each gene was divided into 100 windows of equal length, and read (separately for every sample) at each window were quantified using BEDTOOLS. The array of reads, logged (base 2), were normalized between 0 to 1. […]

Test [4] deals with peripheral blood mononuclear cells from healthy donors. The test is described as follows: Immunogenicity in peripheral blood mononuclear cells from healthy donors.

Entries after “also recorded” stand apart in the source; their conditions may differ. Where a SMILES comes first, the peptide text is derived from it. The star is where a group is joined. Cbz = O=C(OCc1ccccc1)*

With `CC(C)C[C@@H](C=O)NC(=O)[C@H](CC(C)C)NC(=O)[C@H](CC(C)C)NC(=O)OCc1ccccc1` [MG132] (Cbz-Leu-Leu-Leu-aldehyde), in test [1], the “restoration of reduced levels of high-tryptophan containing proteins” value is recorded as “did not restore”.

Take `Cn1cc(C[C@H](N)C(=O)O)c2ccccc21` [IDOi, 1-Methyl-L-tryptophan]: in test [2], the IFNγ-induced frameshifting entry is on record as “prevented”. Also, in test [3], the “accumulation of RPFs at the W-Bumps region / bumps” value is on record as “rescued; also recorded: completely abolished”; the “global redistribution of RPFs towards the translation initiation sites and enrichment of tryptophan codon signal at A-site” value was “negated”.

On to “GLLETHPALLL (SRSF3-based peptide) [SEQ ID NO:62, SRSF3-derived peptide presented by MDA-MB-231]”, for which the immunogenicity entry in test [4] is recorded as “showed immunogenicity”.

Turning to “TLVEDLLEV (RFX1-based peptide) [SEQ ID NO:58, RFX1-derived peptide presented by MDA-MB-231]”, in test [4], the immunogenicity result is recorded as “showed immunogenicity”. Take “TVIGTLLEI (RHOBTB3-based peptide) [SEQ ID NO:61, RHOBTB3-derived peptide presented by MDA-MB-231]”: the immunogenicity entry in test [4] is given as “showed immunogenicity”.
